Literature values, collected in US20170202932A1, “METHODS FOR INHIBITING NEURON APOPTOSIS AND NECROSIS” (NEWSOUTH INNOVATIONS PTY LIMITED, priority 2012, published 2017).

Tests used:
other TRPC channels = conditions: cited from earlier work
TRPC3 = target: T1, TRPC3 (Homo sapiens, UniProt Q13507); conditions: cited from earlier work
T1 sequence (Q13507 1-921): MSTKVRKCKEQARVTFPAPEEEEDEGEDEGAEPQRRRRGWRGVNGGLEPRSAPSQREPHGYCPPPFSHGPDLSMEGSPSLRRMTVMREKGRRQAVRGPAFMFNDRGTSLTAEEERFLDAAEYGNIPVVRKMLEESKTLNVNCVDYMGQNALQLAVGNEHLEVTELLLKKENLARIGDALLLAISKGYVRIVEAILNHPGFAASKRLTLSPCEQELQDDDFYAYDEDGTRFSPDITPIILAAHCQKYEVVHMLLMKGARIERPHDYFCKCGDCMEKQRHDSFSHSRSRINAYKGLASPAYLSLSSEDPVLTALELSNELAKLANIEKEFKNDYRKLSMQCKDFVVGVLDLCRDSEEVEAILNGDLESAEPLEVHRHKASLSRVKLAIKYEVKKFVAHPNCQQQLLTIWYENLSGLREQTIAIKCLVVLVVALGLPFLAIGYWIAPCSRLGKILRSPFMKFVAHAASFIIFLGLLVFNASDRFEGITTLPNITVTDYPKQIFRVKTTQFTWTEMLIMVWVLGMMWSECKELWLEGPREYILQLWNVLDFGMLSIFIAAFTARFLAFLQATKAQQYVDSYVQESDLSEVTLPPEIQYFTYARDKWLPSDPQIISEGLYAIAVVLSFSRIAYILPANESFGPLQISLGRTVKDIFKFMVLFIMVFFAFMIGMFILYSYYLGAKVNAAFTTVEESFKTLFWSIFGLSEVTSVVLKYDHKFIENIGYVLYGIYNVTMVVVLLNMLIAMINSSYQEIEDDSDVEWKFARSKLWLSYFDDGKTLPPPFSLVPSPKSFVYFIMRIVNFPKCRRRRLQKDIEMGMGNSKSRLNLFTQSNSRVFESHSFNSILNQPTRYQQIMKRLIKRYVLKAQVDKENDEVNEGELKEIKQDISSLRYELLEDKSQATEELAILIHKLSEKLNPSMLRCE

CCOC(=O)c1cnn(-c2ccc(NC(=O)C(Cl)=C(Cl)Cl)cc2)c1C(F)(F)F [Pyr3, ethyl-1-(4-(2,3,3-trichloroacrylamide)phenyl)-5-(trifluoromethyl)-1H-pyrazole-4-carboxylate]
effect on other TRPC channels (other TRPC channels): no effect | inhibition of TRPC3-mediated Ca2+ influx (TRPC3): selectively inhibit
